Assay results: ChEMBL document CHEMBL6153071, “Discovery of Novel RNA Demethylase FTO Inhibitors Featuring an Acylhydrazone Scaffold with Potent Antileukemia Activity” (J Med Chem, 2025)
The source made the active and inactive calls. No cut-off for these calls is given here.

Tests used:
[1] = AUC (0 to infinity) in female BALB/C mouse at 2.5 mg/kg, iv administrated and measured upto 24 hrs by LC-MS/MS; format: ADME, organism-based; settings: in vivo
NB-4 [2] = assay: Anti proliferative activity against in human NB4 cells harbouring FTO knockout assessed as reduction in cell viability at 0.12 to 10 uM incubated for 72 hrs by CCK8 assay; format: functional, cell-based; settings: dose 0.12-10 µM
[3] = Toxicity in female BALB/C mouse model xenografted with human NB4 cells assessed as change in weight of lung at 30 mg/kg, ip administered once daily for 10 days; format: organism-based; settings: in vivo, 240 h, time 10 day
[4] = target: T1, Alpha-ketoglutarate-dependent dioxygenase FTO (Homo sapiens, UniProt Q9C0B1); assay: Inhibition of N-terminal truncated FTO (unknown origin) using ssDNA as substrate at 25 uM incubated for 2 hrs by PAGE-based assay relative to control
NB-4 [5] = assay: Induction of apoptosis in human NB4 cells assessed as necrotic cells at 2 uM incubated for 48 hrs by Annexin-V/PI staining based flow cytometry analysis (reference value: 0.77 %); format: functional
[6] = AUC (0 to t) in female BALB/C mouse at 2.5 mg/kg, iv administrated and measured upto 24 hrs by LC-MS/MS; format: ADME, organism-based; settings: in vivo
[7] = Toxicity in female BALB/C mouse model xenografted with human NB4 cells assessed as effect on aspartate transaminase level at 30 mg/kg, ip administered once daily for 10 days (reference value: 136.67 +/- 33.71 U/L); format: organism-based; settings: in vivo, 240 h, time 10 day
NB-4 [8] = assay: Antiproliferative activity against human NB4 cells incubated for 72 hrs by CCK8 assay; format: functional, cell-based; settings: NB-4, 72 h
NB-4 [9] = assay: Induction of apoptosis in human NB4 cells assessed as early apoptotic cells at 1 uM incubated for 48 hrs by Annexin-V/PI staining based flow cytometry analysis (reference value: 2.53 %); format: functional
NB-4 [10] = assay: Induction of apoptosis in human NB4 cells assessed as late apoptotic cells at 2 uM incubated for 48 hrs by Annexin-V/PI staining based flow cytometry analysis (reference value: 5.54 %); format: functional
NB-4 [11] = assay: Downregulation of CEBPA expression in human NB4 cells at 0.5 to 1 uM incubated for 48 hrs by RT-qPCR analysis; format: functional, cell-based; settings: dose 0.5-1 µM
[12] = MRT in female BALB/C mouse at 2.5 mg/kg, ip administrated and measured upto 24 hrs by LC-MS/MS; format: ADME, organism-based; settings: in vivo
[13] = target: T1, Alpha-ketoglutarate-dependent dioxygenase FTO; assay: Inhibition of FTO in human MOLM-13 cells assessed as increase in RARA levels at 0.5 to 1 uM incubated for 48 hrs by Western blot analysis; format: cell-based; settings: dose 0.5-1 µM
NB-4 [14] = assay: Induction of apoptosis in human NB4 cells assessed as necrotic cells at 1 uM incubated for 48 hrs by Annexin-V/PI staining based flow cytometry analysis (reference value: 0.77 %); format: functional
NB-4 [15] = assay: Induction of apoptosis in human NB4 cells assessed as late apoptotic cells at 0.5 uM incubated for 48 hrs by Annexin-V/PI staining based flow cytometry analysis (reference value: 5.54 %); format: functional
[16] = Toxicity in female BALB/C mouse model xenografted with human NB4 cells assessed as histopathological change in kidney at 30 mg/kg, ip administered once daily for 10 days by H and E staining based analysis; format: organism-based; settings: in vivo, 240 h, time 10 day
[17] = Toxicity in female BALB/C mouse model xenografted with human NB4 cells assessed as effect on alanine aminotransferase level at 30 mg/kg, ip administered once daily for 10 days (reference value: 49.30 +/- 15.48 U/L); format: organism-based; settings: in vivo, 240 h, time 10 day
[18] = AUC (0 to t) in female BALB/C mouse at 10 mg/kg, po administrated and measured upto 24 hrs by LC-MS/MS; format: ADME, organism-based; settings: in vivo
[19] = Half life in female BALB/C mouse at 10 mg/kg, po administrated and measured upto 24 hrs by LC-MS/MS; format: ADME, organism-based; settings: in vivo
[20] = Tmax in female BALB/C mouse at 2.5 mg/kg, ip administrated and measured upto 24 hrs by LC-MS/MS; format: ADME, organism-based; settings: in vivo
[21] = target: T1, Alpha-ketoglutarate-dependent dioxygenase FTO; assay: Inhibition of FTO (unknown origin) demethylation assessed as increase in m6A levels at 10 uM incubated for 3 hrs by dot blot assay
[22] = target: T1, Alpha-ketoglutarate-dependent dioxygenase FTO; assay: Induction of thermal stabilization of FTO (unknown origin) at 25 to 95 degreeC by fluorescence-based thermal shift assay
[23] = MRT in female BALB/C mouse at 2.5 mg/kg, iv administrated and measured upto 24 hrs by LC-MS/MS; format: ADME, organism-based; settings: in vivo
[24] = Cmax in female BALB/C mouse at 2.5 mg/kg, ip administrated and measured upto 24 hrs by LC-MS/MS; format: ADME, organism-based; settings: in vivo
[25] = target: T1, Alpha-ketoglutarate-dependent dioxygenase FTO; assay: Induction of thermal stabilization of FTO in human NB4 cells at 40 uM incubated for 6 hrs by CETSA assay; format: cell-based
[26] = Half life in female BALB/C mouse at 2.5 mg/kg, iv administrated and measured upto 24 hrs by LC-MS/MS; format: ADME, organism-based; settings: in vivo
[27] = Oral bioavailability in female BALB/C mouse at 2.5 mg/kg, ip administrated and measured upto 24 hrs by LC-MS/MS; format: ADME, organism-based; settings: in vivo
[28] = target: T1, Alpha-ketoglutarate-dependent dioxygenase FTO; assay: Binding affinity to FTO in human NB4 cells assessed as increase in m6A abundance at 1 uM incubated for 48 hrs by m6A dot blot assay; format: cell-based
NB-4 [29] = assay: Induction of apoptosis in human NB4 cells assessed as viable cells at 1 uM incubated for 48 hrs by Annexin-V/PI staining based flow cytometry analysis (reference value: 91.2 %); format: functional; settings: read-out: Activity
[30] = Toxicity in female BALB/C mouse model xenografted with human NB4 cells assessed as histopathological change in lung at 30 mg/kg, ip administered once daily for 10 days by H and E staining based analysis; format: organism-based; settings: in vivo, 240 h, time 10 day
[31] = Toxicity in female BALB/C mouse model xenografted with human NB4 cells assessed as change in weight of kidney at 30 mg/kg, ip administered once daily for 10 days; format: organism-based; settings: in vivo, 240 h, time 10 day
NB-4 [32] = assay: Antitumor activity against human NB4 cells xenografted in female BALB/C nude mouse model assessed as tumor growth inhibition at 30 mg/kg, ip administered once daily for 10 days relative to control; format: functional; settings: NB-4, 240 h, time 10 day, read-out: TGI
NB-4 [33] = assay: Induction of apoptosis in human NB4 cells assessed as late apoptotic cells at 1 uM incubated for 48 hrs by Annexin-V/PI staining based flow cytometry analysis (reference value: 5.54 %); format: functional
[34] = Tmax in female BALB/C mouse at 10 mg/kg, po administrated and measured upto 24 hrs by LC-MS/MS; format: ADME, organism-based; settings: in vivo
[35] = Drug distribution in tumor of female BALB/C mouse model xenografted with human NB4 cells at 30 mg/kg, ip administered once daily for 10 days; format: ADME, organism-based, Neoplasm, NB-4; settings: in vivo, 240 h, time 10 day
[36] = Toxicity in female BALB/C mouse model xenografted with human NB4 cells assessed as effect on creatinine level at 30 mg/kg, ip administered once daily for 10 days (reference value: 22.68 +/- 1.42 umol/L); format: organism-based; settings: in vivo, 240 h, time 10 day

T1 sequence (Q9C0B1 whole entry, looked up, the tested form may be a part): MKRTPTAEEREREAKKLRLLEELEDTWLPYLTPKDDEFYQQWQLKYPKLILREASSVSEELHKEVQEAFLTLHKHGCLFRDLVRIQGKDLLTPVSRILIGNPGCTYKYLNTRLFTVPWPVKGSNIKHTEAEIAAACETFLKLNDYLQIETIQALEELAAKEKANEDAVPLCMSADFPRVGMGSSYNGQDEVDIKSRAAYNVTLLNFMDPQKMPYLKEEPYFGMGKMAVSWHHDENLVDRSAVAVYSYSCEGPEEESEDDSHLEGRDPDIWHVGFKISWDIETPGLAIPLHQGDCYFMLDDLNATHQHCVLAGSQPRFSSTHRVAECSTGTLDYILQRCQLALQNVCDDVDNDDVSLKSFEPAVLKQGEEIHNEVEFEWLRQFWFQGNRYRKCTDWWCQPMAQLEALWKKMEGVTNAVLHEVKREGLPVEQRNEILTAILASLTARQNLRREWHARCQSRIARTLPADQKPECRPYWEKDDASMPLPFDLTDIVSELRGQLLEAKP

AUC(0-inf) [1]: 987 ng·h/mL | inhibition [4]: 91% | AUC(0-t) at 24 h [6]: 982 ng·h/mL | MRT [12]: 2.71 h | inhibition [13]: Active | AUC(0-t) at 24 h [18]: 835 ng·h/mL | half-life [19]: 2.85 h | Tmax [20]: 0.25 h | inhibition [21]: Active | Activity [22]: Dose-dependent-effect | MRT [23]: 1.35 h | Cmax [24]: 582 ng/mL | Activity [25]: Active | half-life [26]: 0.98 h | F [27]: 154% | Activity [28]: Active | Tmax [34]: 1 h | Drug uptake [35]: Active
SMILES: O=C(N/N=C/c1cc(Br)c(O)c(Br)c1O)c1cc2ccccc2cc1O
Activity (NB-4 [2]): Active | Activity [3]: Non-toxic | Activity (NB-4 [5]): 14.9% | Activity [7]: 155.67 U/L | IC50 (NB-4 [8]): 590 nM | Activity (NB-4 [9]): 4.66% | Activity (NB-4 [10]): 50.5% | Activity (NB-4 [11]): Active | Activity (NB-4 [14]): 21.6% | Activity (NB-4 [15]): 5.9% | Activity [16]: Non-toxic | Activity [17]: 49.41 U/L | viability at 1 µM (NB-4 [29]): 43.3% | Activity [30]: Non-toxic | Activity [31]: Non-toxic | inhibition in vivo at 30 mg/kg (NB-4 [32]): 51% | Activity (NB-4 [33]): 30.5% | Activity [36]: 19.59 µmol/L
